Measured values from PMC6514812, “[^18F]Fluoroethyltriazolyl Monocyclam Derivatives as Imaging Probes for the Chemokine Receptor CXCR4” (Molecules, 2019).

How the values were obtained:
CXCR4 [1] = target: T1, CXCR4 (Homo sapiens, UniProt P61073); test: Competition binding assay vs [^18F]RPS-544 in PC3-CXCR4 cells; conditions: approx. 5 pM [^18F]RPS-544; p = 0.85
T1 construct: expressed in transfected cells; host or cells: PC3 (human prostate cancer) cells stably transduced with CXCR4
Description: (§1) PC3-CXCR4 cells were plated in 12-well plates at a density of 500,000 cells per well and incubated for 48 h at 37 °C/5% CO2. Prior to the binding assay the cells were incubated in fresh media and 370–555 kBq of [^68Ga]Pentixafor or [^18F]RPS-544 was added to each well. The corresponding concentration of [^68Ga]Pentixafor in each well was 100 nM, and the concentration of [^18F]RPS-544 was approximately 5 pM. Then non-radioactive ligands were added to give a final ligand concentration in the range 0.001–10,000 nM. A total of eight concentrations were studied, and each concentration was tested in triplicate. The cells were incubated for 60 min at 37 °C/5% CO2. The media was removed under suction, the cells were washed with cold PBS 1X and detached and transferred to tubes for counting in 1 M NaOH. The cells were counted in a Wizard^2 Gamma Counter (PerkinElmer, Waltham, MA, USA). Non-specific binding was subtracted, and the IC50 values were determined by assuming a simple competitive binding interaction and fitting the data to a sigmoidal Hill plot in Origin 9.0 (OriginLab, Northampton, MA, USA). Potencies are expressed as IC50 ± standard deviation (Supplemental Data, Figure S7).

[2] = test system: PC3-CXCR4 xenograft tumors; test: Biodistribution in mice bearing bilateral PC3-WT/PC3-CXCR4 xenograft tumors; format: in vivo, BALB/c mice; conditions: 1 h p.i.
Description: (§2) All animal studies were approved by the Institutional Animal Care and Use Committee of Weill Cornell Medicine (Protocol Number: 2015-0066) and were undertaken in accordance with the guidelines set forth by the USPHS Policy on Humane Care and Use of Laboratory Animals. Animals were housed under standard conditions in approved facilities with 12 h light/dark cycles. Food and water was provided ad libitum throughout the course of the studies. Hairless 6-to-8-week old male BALB/c inbred athymic nude mice (Jackson Laboratory, Bar Harbor, ME, USA) were inoculated bilaterally with 0.2 mL of a 1:1 mixture of 10^7 PC3-CXCR4 cells in PBS and Matrigel (Corning, Tewksbury, MA, USA) subcutaneously in the left shoulder and 0.2 mL of a 1:1 mixture of 10^7 PC3-WT cells in PBS and Matrigel subcutaneously in the right shoulder. Imaging and biodistribution studies were performed three weeks post-implantation, when tumors were approximately 100–300 mm^3.
(§3) For the biodistribution studies, tumor-bearing animals (n = 5/compound/time point) were injected intravenously with 50–100 μL of a 9% v/v EtOH/saline solution containing approximately 1.1 MBq of the radioligand. […] The mice were euthanized at 1 or 2 h p.i. and tissues including blood, heart, lungs, liver, small intestine, large intestine, stomach (with contents), spleen, pancreas, kidneys, muscle, bone, PC3-WT tumors, PC3-CXCR4 tumors, and tail were collected. All organs were weighed and placed in test tubes for counting in a Wizard^2 Gamma Counter (PerkinElmer, Waltham, MA, USA). For comparison, 1% injected activity standards were prepared and counted along with the tissue samples. The tails were counted to correct for any dose extravasation. Activity in each tissue was corrected for decay and for injected activity and expressed as percent injected dose per gram of tissue (%ID/g) ± standard error.

[3] = as above; format: in vivo, BALB/c mice; conditions: 1 h p.i.
Description: as §2, §3

CXCR4 [4] = target: T1, CXCR4; test: Saturation binding assay in PC3-CXCR4 cells
Description: To determine the dissociation constants, saturation binding assays were performed in the PC3-CXCR4 cells. The cells were plated as described above, and approximately 5 nM of the radioligand was added to each well. Then the corresponding non-radioactive ligand was added to give a final concentration in the range 0.001–10,000 nM. A total of eight concentrations were tested, and each concentration was tested in triplicate. The samples were washed and counted as described above. Non-specific binding was subtracted, and Kd values were determined by performing a nonlinear one site binding curve fit with equation y = (Bmax · x)/(Kd + x). Values are expressed as Kd ± standard deviation (Supplemental Data, Figure S8).

CXCR4 [5] = target: T1, CXCR4; test: Competition binding assay vs [^68Ga]Pentixafor in PC3-CXCR4 cells
Description: as §1

PC3-CXCR4 cells = test: Cell-associated activity in PC3-CXCR4 cells; format: cell-based, human; conditions: 1 h
Description: Maximum cell-associated activity was calculated by subtracting the cell uptake of the radioactive ligand at the highest non-radioactive ligand concentration of 10 µM (which we considered to be non-specific uptake/binding) from the cell uptake at the lowest non-radioactive ligand concentration of 10^−5 µM.

T1 sequence (P61073 whole entry): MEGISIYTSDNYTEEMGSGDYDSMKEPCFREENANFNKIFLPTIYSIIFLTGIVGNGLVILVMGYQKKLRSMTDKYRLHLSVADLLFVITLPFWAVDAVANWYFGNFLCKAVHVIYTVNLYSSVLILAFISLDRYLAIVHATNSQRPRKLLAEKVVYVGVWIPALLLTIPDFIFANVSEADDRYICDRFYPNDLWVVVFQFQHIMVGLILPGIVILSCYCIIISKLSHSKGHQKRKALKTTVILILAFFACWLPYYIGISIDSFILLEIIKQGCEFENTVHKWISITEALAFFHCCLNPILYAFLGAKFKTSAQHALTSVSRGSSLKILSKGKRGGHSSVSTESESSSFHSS

IC50 vs [^18F]RPS-544 compared with IC50 vs [^68Ga]Pentixafor (CXCR4 [1]): not significantly different
Bone tissue activity [2]: 1.22±0.03 %ID/g
Heart tissue activity [2]: 0.57±0.05 %ID/g
Kidneys tissue activity [2]: 12.17 ± 0.78 %ID/g
Large Intestine tissue activity [2]: 0.23±0.02 %ID/g
Liver tissue activity [2]: 3.69±0.21 %ID/g
Lungs tissue activity [2]: 0.60±0.08 %ID/g
Muscle tissue activity [2]: 0.67±0.08 %ID/g
PC3-CXCR4 Tumor Uptake [2]: 1.93 ± 0.18 %ID/g
PC3-CXCR4 Tumor-to-Tissue Ratio Blood [2]: 6.9 ± 0.2
PC3-CXCR4 Tumor-to-Tissue Ratio Bone [2]: 1.4 ± 0.7
PC3-CXCR4 Tumor-to-Tissue Ratio Kidneys [2]: 0.2 ± 0.1
PC3-CXCR4 Tumor-to-Tissue Ratio Liver [2]: 0.5 ± 0.1
PC3-CXCR4 Tumor-to-Tissue Ratio Lungs [2]: 3.3 ± 0.4
PC3-CXCR4 Tumor-to-Tissue Ratio Muscle [2]: 2.2 ± 0.3
PC3-CXCR4 Tumor-to-Tissue Ratio PC3-WT [2]: 2.0 ± 0.4
PC3-WT tumor activity [2]: 0.91±0.19 %ID/g
Pancreas tissue activity [2]: 0.44±0.02 %ID/g
Small Intestine tissue activity [2]: 2.19±0.05 %ID/g
Spleen tissue activity [2]: 0.52±0.02 %ID/g
Stomach tissue activity [2]: 0.17±0.04 %ID/g
Blood tissue activity [3]: 0.30±0.06 %ID/g
Kd (CXCR4 [4]; saturation binding, PC3-CXCR4 cells): 366 ± 70 nM
Hill Slope, Saturation Binding Experiment (CXCR4 [4]; value ± SD): 1.12 ± 0.05
IC50 (CXCR4 [5]; vs 100 nM [^68Ga]Pentixafor, PC3-CXCR4 cells, 60 min 37 °C): 356 ± 100 nM
Hill Slope, Competitive Binding Experiment (CXCR4 [5]; vs [^68Ga]Pentixafor, value ± SD): 1.07 ± 0.36
SMILES: FCCn1cc(-c2cc(CNCc3ccccn3)ccc2CN2CCCNCCNCCCNCC2)nn1 [RPS-533]
Cell-Associated Activity (PC3-CXCR4 cells): 2.1 ± 0.4 %IA
